Measured values taken from patent US20080057086A1, “COLON-TARGETED ORAL FORMULATIONS OF CYTIDINE ANALOGS” (PHARMION CORPORATION, priority 2006, published 2008).
Read-outs that look alike come from different tables or passages of the source.

Key:
[1] = Clinical study of single oral doses of 5-azacytidine (oral formulation of Example 3): PK, bioavailability, safety; assay type: in vivo, human; details: for bioavailability: oral, SC reference dose = 135 mg, AUC = 777 ng · h/mL, read-out: F, percent bioavailability compared with historical SC azacitidine data
Description: The study was a multicenter, open-label, single treatment study. Patients were treated with escalating doses, in 20 mg increments, up to 200 mg. The study assessed the safety and tolerability of escalating doses, provided pilot information on the oral bioavailability of the study drug, and provided information on the single dose pharmacokinetics of the study drug after oral administration.
Multicenter, open-label, single-treatment, escalating-dose PK study. […] Single subject cohorts were used for each dose escalation. Subsequent subjects were to be treated at escalating doses, up to 200 mg, in 20 mg increments. Dose escalation was to continue until 1 of the following conditions was reached: • a.
If no safety concerns were identified and no Grade 3 or 4 AEs occurred in these subjects, dose escalation was to continue. […] Serial blood samples for plasma PK analyses were drawn before, and at the following time points after, dosing: 0.5, 1, 1.5, 2, 2.5, 3, 3.5, 4, 4.5, 5, 5.5, 6, 6.5, 7, 8 hours, and 12 hours (if possible). […] PK parameters calculated from plasma concentrations included (but were not limited to) Cmax, Tmax, t1/2, and AUC(0−∞).

leukemic mice = details: cited from earlier work
[2] = 1 subject, 60 mg single oral dose
[3] = 1 subject, 80 mg single oral dose
[4] = all 4 subjects, 60 or 80 mg single oral dose
[5] = human, plasma, po, 60 mg, Subject 101, 60 mg single oral dose (Example 3 tablets)
[6] = human, plasma, po, 60 mg, Subject 101, 60 mg single oral dose (Example 3 tablets), read-out: Plasma concentration
[7] = human, plasma, po, 80 mg, Mean (n = 3), 80 mg single oral dose (Example 3 tablets)
[8] = human, plasma, po, 80 mg, Mean of 80 mg dose group (n=3), single oral dose (Example 3 tablets), read-out: Mean plasma concentration
[9] = human, plasma, po, 80 mg, Subject 102, 80 mg single oral dose (Example 3 tablets)
[10] = human, plasma, po, 80 mg, Subject 102, 80 mg single oral dose (Example 3 tablets), read-out: Plasma concentration
[11] = human, plasma, po, 80 mg, Subject 201, 80 mg single oral dose (Example 3 tablets)
[12] = human, plasma, po, 80 mg, Subject 201, 80 mg single oral dose (Example 3 tablets), read-out: Plasma concentration
[13] = human, plasma, po, 80 mg, Subject 202, 80 mg single oral dose (Example 3 tablets)
[14] = human, plasma, po, 80 mg, Subject 202, 80 mg single oral dose (Example 3 tablets), read-out: Plasma concentration
[15] = PO administration with THU versus without, bioassay

## Nc1ncn([C@@H]2O[C@H](CO)[C@@H](O)[C@H]2O)c(=O)n1 [5-azacytidine, 4-amino-1-β-D-ribofuranosyl-1,3,5-triazin-2(1H)-one]
[1]; [2]
  Plasma samples with quantifiable 5-azacytidine: 2 samples
  Tolerability: well tolerated
[1]; [3]
  Consecutive plasma samples with detectable 5-azacytidine: 4 consecutive samples
  Tolerability: well tolerated
[1]; Mean of 80 mg dose group (n=3), single oral dose (Example 3 tablets), 4.0 h
  Mean plasma concentration: BLQ
[1]; Mean of 80 mg dose group (n=3), single oral dose (Example 3 tablets), 4.5 h
  Mean plasma concentration: BLQ
[1]; Mean of 80 mg dose group (n=3), single oral dose (Example 3 tablets), 5.0 h
  Mean plasma concentration: BLQ
[1]; Subject 101, 60 mg single oral dose (Example 3 tablets), 0.5 h
  Plasma concentration: BLQ
[1]; Subject 101, 60 mg single oral dose (Example 3 tablets), 4.5 h
  Plasma concentration: BLQ
[1]; Subject 101, 60 mg single oral dose (Example 3 tablets), 5.0 h
  Plasma concentration: BLQ
[1]; Subject 102, 80 mg single oral dose (Example 3 tablets), 0.5 h
  Plasma concentration: BLQ
[1]; Subject 102, 80 mg single oral dose (Example 3 tablets), 3.5 h
  Plasma concentration: BLQ
[1]; Subject 102, 80 mg single oral dose (Example 3 tablets), 4.0 h
  Plasma concentration: BLQ
[1]; Subject 102, 80 mg single oral dose (Example 3 tablets), 4.5 h
  Plasma concentration: BLQ
[1]; Subject 102, 80 mg single oral dose (Example 3 tablets), 5.0 h
  Plasma concentration: BLQ
[1]; Subject 201, 80 mg single oral dose (Example 3 tablets), 0.5 h
  Plasma concentration: BLQ
[1]; Subject 201, 80 mg single oral dose (Example 3 tablets), 5.0 h
  Plasma concentration: BLQ
[1]; Subject 202, 80 mg single oral dose (Example 3 tablets), 4.0 h
  Plasma concentration: BLQ
[1]; Subject 202, 80 mg single oral dose (Example 3 tablets), 4.5 h
  Plasma concentration: BLQ
[1]; Subject 202, 80 mg single oral dose (Example 3 tablets), 5.0 h
  Plasma concentration: BLQ
[1]; [4]
  Grade of AEs possibly related to study drug: Grade 2
  Study-drug-related SAEs: No study-drug-related SAEs
[1]; human, plasma, 60 mg, Subject 101, 60 mg single oral dose
  bioavailability: 6.7%
[1]; human, plasma, 80 mg, Mean (n = 3), 80 mg single oral dose
  bioavailability: 18%
[1]; human, plasma, 80 mg, Subject 102, 80 mg single oral dose
  bioavailability: 6.3%
[1]; human, plasma, 80 mg, Subject 201, 80 mg single oral dose
  bioavailability: 24%
[1]; human, plasma, 80 mg, Subject 202, 80 mg single oral dose
  bioavailability: 22%
[1]; [5]
  AUC(0-inf): 22.6 ng·h/mL
  Cmax: 15.8 ng/mL
  Tmax: 3 h
[1]; [6]
  concentration at 0 h: 0 ng/mL
  concentration at 1 h: 3.72 ng/mL
  concentration at 1.5 h: 4.56 ng/mL
  concentration at 2 h: 3.75 ng/mL
  concentration at 3 h: 15.8 ng/mL
[1]; human, plasma, po, 60 mg, Subject 101, 60 mg single oral dose (Example 3 tablets), 3.5 h, read-out: Plasma concentration
  concentration at 3.5 h: 4.27 ng/mL
[1]; human, plasma, po, 60 mg, Subject 101, 60 mg single oral dose (Example 3 tablets), 4.0 h
  concentration at 4 h: 1.55 ng/mL
[1]; [7]
  AUC(0-inf): 81.5 ng·h/mL
  Cmax: 53.2 ng/mL
  Tmax: 1.5 h
  half-life: 0.361 h
[1]; [8]
  concentration at 0 h: 0 ng/mL
  concentration at 1 h: 46.6 ng/mL
  concentration at 1.5 h: 53.2 ng/mL
  concentration at 2 h: 36.9 ng/mL
  concentration at 2.5 h: 17.5 ng/mL
  concentration at 3 h: 6.3 ng/mL
[1]; human, plasma, po, 80 mg, Mean of 80 mg dose group (n=3), single oral dose (Example 3 tablets), 0.5 h, read-out: Mean plasma concentration
  concentration at 0.5 h: 1.49 ng/mL
[1]; human, plasma, po, 80 mg, Mean of 80 mg dose group (n=3), single oral dose (Example 3 tablets), 3.5 h, read-out: Mean plasma concentration
  concentration at 3.5 h: 2.57 ng/mL
[1]; [9]
  AUC(0-inf): 28.6 ng·h/mL
  Cmax: 34.3 ng/mL
  Tmax: 1.5 h
  half-life: 0.336 h
[1]; [10]
  concentration at 0 h: 0 ng/mL
  concentration at 1 h: 9.25 ng/mL
  concentration at 1.5 h: 34.3 ng/mL
  concentration at 2 h: 11 ng/mL
  concentration at 2.5 h: 3.61 ng/mL
  concentration at 3 h: 1.4 ng/mL
[1]; [11]
  AUC(0-inf): 111 ng·h/mL
  Cmax: 75.1 ng/mL
  Tmax: 2 h
  half-life: 0.416 h
[1]; [12]
  concentration at 0 h: 0 ng/mL
  concentration at 1 h: 31.5 ng/mL
  concentration at 1.5 h: 58.5 ng/mL
  concentration at 2 h: 75.1 ng/mL
  concentration at 2.5 h: 36.4 ng/mL
  concentration at 3 h: 14.1 ng/mL
[1]; human, plasma, po, 80 mg, Subject 201, 80 mg single oral dose (Example 3 tablets), 3.5 h, read-out: Plasma concentration
  concentration at 3.5 h: 6.1 ng/mL
[1]; human, plasma, po, 80 mg, Subject 201, 80 mg single oral dose (Example 3 tablets), 4.0 h
  concentration at 4 h: 2.43 ng/mL
[1]; human, plasma, po, 80 mg, Subject 201, 80 mg single oral dose (Example 3 tablets), 4.5 h
  concentration at 4.5 h: 1.19 ng/mL
[1]; [13]
  AUC(0-inf): 103 ng·h/mL
  Cmax: 99.1 ng/mL
  Tmax: 1 h
  half-life: 0.366 h
[1]; [14]
  concentration at 0 h: 0 ng/mL
  concentration at 1 h: 99.1 ng/mL
  concentration at 1.5 h: 66.7 ng/mL
  concentration at 2 h: 24.5 ng/mL
  concentration at 2.5 h: 12.5 ng/mL
  concentration at 3 h: 3.41 ng/mL
[1]; human, plasma, po, 80 mg, Subject 202, 80 mg single oral dose (Example 3 tablets), 0.5 h, read-out: Plasma concentration
  concentration at 0.5 h: 4.46 ng/mL
[1]; human, plasma, po, 80 mg, Subject 202, 80 mg single oral dose (Example 3 tablets), 3.5 h, read-out: Plasma concentration
  concentration at 3.5 h: 1.61 ng/mL
[1]; human, plasma, po, 80 mg, individual subjects who received an 80 mg oral dose (three values), post-dose
  Tmax: 1.5 h
[1]; mean 80 mg oral dose
  Cmax increase versus the 60 mg dose: 3.5 fold
  Time at which concentrations were below the level of quantitation: 4.0 h
[1]; oral formulation of Example 3
  Apparent oral bioavailability: acceptable for therapeutic treatment
Leukemic mice; IP administration with THU, bioassay
  Effect of THU on clearance or degradation of 5-azacytidine: little effect
Leukemic mice; [15]
  Cmax: significantly increased
  t1/2: significantly increased
Leukemic mice; PO with THU, all doses except the highest chronic dose which was toxic
  Efficacy with co-administration of THU: increased efficacy
Leukemic mice; acute and chronic IP dosing with THU, except at the highest chronic dose which was toxic
  Effect of THU on pharmacodynamic effects of 5-azacytidine: did not influence
